Data from patent US20040127718A1, “Substituted imidazoles” (Novo Nordisk A/S, priority 2001, published 2004).

How the values were obtained:
H3 receptor [1] = target: T1, H3 receptor (Homo sapiens, UniProt Q9Y5N1); assay: Binding Assay III: [125I]-iodoproxifan binding to membranes of h-H3-HEK 293 clones; conditions: 30 pM [125I]-iodoproxifan, h-H3-HEK 293 membranes
T1 construct: expressed in transfected cells; pcDNA3)
Experimental: The H3 receptor was cloned by PCR and subcloned into the pcDNA3 expression vector. Cells stably expressing the H3 receptor were generated by transfecting the H3-expression vectors into HEK 293 cells and using G418 to select for H3 clones. The h-H3-HEK 293 clones were cultured in DMEM with glutamax, 10% FCS, 1% Pen/Strep and 1 mg/ml G 418 at 37° C. and 5% CO2. Before harvesting, the confluent cells were rinsed with PBS and incubated with Versene for approximately 5 minutes. The cells were flushed with PBS and DMEM and the cellsuspension collected in a tube and centrifuged for 5-10 min at 1500 rpm in a Heraeus Sepatech Megafuge 1.0. The pellet was resuspended in 10-20 vol. Hepes buffer (20 mM Hepes, 5 mM MgCl2, pH 7.1 (KOH)) and homogenized for 10-20 seconds using a Ultra-Turrax homogenizer. The homogenate was centrifuged for 30 min at 23 000 g. The pellet was resuspended in 5-10 ml Hepes buffer, homogenized 5-10 seconds with the Ultra-Turrax and centrifuged for 10 min at 23 000 g. Following this centrifugation step, the membrane pellet was resuspended in 2-4 ml Hepes buffer, homogenized with a syringe or teflonhomogenizer, and the protein concentration determined. The membranes were diluted to a protein concentration of 1-5 mg/ml in Hepes buffer, aliquoted and kept at −80° C. until use. […]

H3 receptor [2] = target: T1, H3 receptor; assay: Functional Assay: cAMP accumulation (Flash Plate) in HEK293 cells expressing the human H3 receptors; format: cell-based; conditions: cAMP accumulation stimulated with isoprenaline, h-H3-HEK 293 cells
Experimental: The ability of the compounds to interact with the histamine H3 receptor as agonists, inverse agonists and/or competitive antagonists, was determined by an in vitro functional assay utilizing membranes from HEK293 cell expressing the human H3 receptors.
The H3 receptor was cloned by PCR and subcloned into the pcDNA3 expression vector. Cells stably expressing the H3 receptor were generated by transfecting the H3-expression vectors into HEK 293 cells and using G418 to select for H3 clones. The h-H3-HEK 293 clones were cultured in DMEM with glutamax, 10% FCS, 1% Pen/Strep and 1 mg/ml G 418 at 37° C. and 5% CO2.
The H3 receptor expressing cells were washed once with phosphate buffered saline (PBS) and harvested using versene (GIBCO-BRL). PBS was added and the cells were centrifuged for 5 min at 188 g. The cell pellet was resuspended in stimulation buffer to a concentration of 1×10^6 cells/ml. cAMP accumulation was measured using the Flash Plate® cAMP assay (NEN™ Life Science Products). […] The plates were then sealed with plastic, shaken for 30 minutes, allowed to stand overnight, and finally the radioactivity was counted in the Cobra II auto gamma topcounter. EC50 values were calculated by non-linear regression analysis of dose response curves (6 points minimum) using GraphPad Prism. Kb values were calculated by Schild plot analysis.

T1 sequence (Q9Y5N1 whole entry): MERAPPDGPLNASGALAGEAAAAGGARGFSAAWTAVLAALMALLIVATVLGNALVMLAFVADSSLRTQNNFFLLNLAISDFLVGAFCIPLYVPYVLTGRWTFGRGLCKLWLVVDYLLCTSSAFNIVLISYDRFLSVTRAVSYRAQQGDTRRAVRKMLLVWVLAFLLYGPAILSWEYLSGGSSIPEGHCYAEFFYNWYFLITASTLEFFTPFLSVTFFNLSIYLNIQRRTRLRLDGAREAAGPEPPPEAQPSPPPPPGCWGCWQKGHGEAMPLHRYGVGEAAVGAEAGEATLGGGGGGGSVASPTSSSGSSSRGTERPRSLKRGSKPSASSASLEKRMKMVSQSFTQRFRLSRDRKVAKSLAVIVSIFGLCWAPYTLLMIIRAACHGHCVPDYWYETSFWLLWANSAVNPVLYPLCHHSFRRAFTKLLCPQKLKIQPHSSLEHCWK

| SMILES | IC50 (H3 receptor [1]) [nM] | EC50 (H3 receptor [2]) [nM] |
| --- | --- | --- |
| Cc1[nH]cnc1CCCOCc1cccc(I)c1 [Example 16/14, 4-[3-(3-Iodo-benzyloxy)-propyl]-5-methyl-1H-imidazole] | < 50 | < 50 |
| Cc1[nH]cnc1CCCCOc1ccc2ccccc2c1 [Example 15/5, 5-Methyl-4-[4-(naphthalen-2-yloxy)-butyl]-1H-imidazole] | < 100 | < 100 |
